This is an account of results in ChEMBL document CHEMBL4665729, “The SARS-CoV-2 main protease as drug target” (Bioorg Med Chem Lett, 2020).

The subject of assay [1] is Severe acute respiratory syndrome coronavirus 2. Nature of the assay: Inhibition of SARS-CoV-2 main protease expressed in expressed in BL21(DE3) Escherichia Coli […] by measuring ratio of K2/Ki by FRET assay.
A short description of assay [2]: Inhibition of SARS-CoV-2 main protease expressed in expressed in BL21(DE3) Escherichia Coli […] by FRET assay. Further details: species or system Severe acute respiratory syndrome coronavirus 2.

Each structure is given as a SMILES string.

As for `CC(C)C[C@H](NC(=O)OCc1ccccc1)C(=O)N[C@@H](CC1CCNC1=O)C(O)S(=O)(=O)O` (stereo partly drawn), the Ratio in assay [1] amounted to 40800 M⁻¹ s⁻¹.

For `CC(C)(C)NC(=O)N[C@H](C(=O)N1C[C@H]2[C@@H]([C@H]1C(=O)NC(CC1CCC1)C(=O)C(N)=O)C2(C)C)C(C)(C)C` (stereo partly drawn) [BOCEPREVIR], in assay [2], the EC50 (in general, the concentration at which the effect is half-maximal) is 1310 nM and the Ki (usually a measure of affinity in units of concentration, obtained from inhibition or displacement) worked out at 1180 nM.
